{
  "source": "patent US4868171A",
  "about": "“Antibiotic A 40926 N-acylaminoglucuronyl aglycons and antiobiotic A 40926 aglycon” (Gruppo Lepetit S.p.A., priority 1986, dated 1989)",
  "key": {"[1]": {"test_system": "Bacteroides fragilis L1010 ATCC 23745", "assay": "MIC determination, agar dilution (Wilkins-Chalgren agar, anaerobic)", "assay_type": "cell-based", "settings": "ATCC23745, 48 h"}, "[2]": {"test_system": "Neisseria gonorrhoeae L997 ISM68/126", "assay": "MIC determination, standard dilution test (GC base broth + 1% Isovitalex)", "assay_type": "cell-based", "settings": "L997ISM68/126, 48 h, CO2-enriched"}, "[3]": {"test_system": "Mycoplasma gallisepticum L431 S6 Weybridge", "assay": "MIC determination, standard dilution test (PPLO broth)", "assay_type": "cell-based", "settings": "Mycoplasmoides gallisepticum; PPLO broth + 10% horse serum + 1% glucose, 48 h"}, "[4]": {"test_system": "Strep. mitis L796 (clinical isolate)", "assay": "MIC determination, standard dilution test (Todd-Hewitt broth)", "assay_type": "cell-based", "settings": "Streptococcus mitis, 24 h"}, "[5]": {"test_system": "Escherichia coli L47 SKF 12140", "assay": "MIC determination, standard dilution test (Isosensitest broth)", "assay_type": "cell-based", "settings": "L47SKF12140, 24 h"}, "S. pyogenes C 203 (L 49)": {"test_system": "S. pyogenes C 203 (L 49)", "assay": "Experimental septicemia in the mouse", "assay_type": "in vivo, CD-1 mice infected with S. pyogenes", "settings": "Streptococcus pyogenes, sc, 168 h, subcutaneous immediately after infection, survival on 7th day", "procedure": "The antimicrobial activity of the compounds of the invention is confirmed also in experimental septicemia in the mouse. Control and treatment groups contained ten CD-1 mice (Charles River) weighing 18-22 g. They were infected intraperitoneally with 0.5 ml of bacterial suspension prepared by diluting an overnight culture of S. pyogenes C 203 (L 49) with sterile peptonized saline. Inocula were adjusted so that untreated animals died of septicemia within 48 h. The compounds to be tested were administered subcutaneously immediately after infection. On the 7th day, the ED50 in mg/kg was calculated by the method of Spearman and Karber (D. J. Finney \"Statistical Methods in Biological Assay\", Griffin, page 524, 1952) from the percentage of surviving animals at each dose."}, "[6]": {"test_system": "Strep. pneumoniae L44 UC41", "assay": "MIC determination, standard dilution test (Todd-Hewitt broth)", "assay_type": "cell-based", "settings": "Streptococcus pneumoniae, 24 h"}, "Staph. aureus L165": {"test_system": "Staph. aureus L165", "assay": "MIC determination, standard dilution test (Isosensitest broth)", "assay_type": "cell-based", "settings": "Staphylococcus aureus"}, "Strep. pyogenes L49 C203": {"test_system": "Strep. pyogenes L49 C203", "assay": "MIC determination, standard dilution test (Todd-Hewitt broth)", "assay_type": "cell-based", "settings": "Streptococcus pyogenes, L49C203, 24 h"}, "[7]": {"test_system": "Clostridium difficile L1363 ATCC 9689", "assay": "MIC determination, agar dilution (Wilkins-Chalgren agar, anaerobic)", "assay_type": "cell-based", "settings": "Clostridioides difficile, ATCC9689, 48 h"}, "[8]": {"test_system": "Staph. epidermidis L147 ATCC 12228 (coagulase negative)", "assay": "MIC determination, standard dilution test (Isosensitest broth)", "assay_type": "cell-based", "settings": "Staphylococcus epidermidis, ATCC12228, 24 h"}, "[9]": {"test_system": "Propionibacterium acnes L1014 ATCC 6919", "assay": "MIC determination, agar dilution (Wilkins-Chalgren agar, anaerobic)", "assay_type": "cell-based", "settings": "Cutibacterium acnes, ATCC6919, 48 h"}, "[10]": {"test_system": "Haemophilus influenzae L 970 type b ATCC 19418", "assay": "MIC determination, standard dilution test (Brain Heart broth + 1% Supplement C)", "assay_type": "cell-based", "settings": "ATCC19418, 48 h"}, "[11]": {"test_system": "Strep. faecalis L149 ATCC 7080", "assay": "MIC determination, standard dilution test (Isosensitest broth)", "assay_type": "cell-based", "settings": "Enterococcus faecalis, ATCC7080, 24 h"}, "[12]": {"test_system": "Clostridium perfringens L290 ISS 30543", "assay": "microbe, parasite or virus in culture", "assay_type": "cell-based", "settings": "L290ISS30543, 24 h"}},
  "data": [
    {"smiles": "CNC1C(=O)NC2Cc3ccc(cc3)Oc3cc4cc(c3O)Oc3ccc(cc3Cl)C(O)C3NC(=O)C(NC(=O)C4NC(=O)C(NC2=O)c2cc(cc(O)c2Cl)Oc2cc1ccc2O)c1ccc(O)c(c1)-c1c(O)cc(O)cc1C(C(=O)O)NC3=O", "note": "(stereo not shown) [Antibiotic A 40926 aglycon]", "values": [
      {"measurement": "MIC", "setting": "[1]", "value": 32, "unit": "µg/mL"},
      {"measurement": "MIC", "setting": "[2]", "value": 16, "unit": "µg/mL"},
      {"measurement": "MIC", "setting": "[3]", "value": "> 128", "unit": "µg/mL"},
      {"measurement": "MIC", "setting": "[4]", "value": 0.5, "unit": "µg/mL"},
      {"measurement": "MIC", "setting": "[5]", "value": 128, "unit": "µg/mL"},
      {"measurement": "ED50", "setting": "S. pyogenes C 203 (L 49)", "value": 6.2, "unit": "mg/kg"},
      {"measurement": "MIC", "setting": "[6]", "value": 1, "unit": "µg/mL"},
      {"measurement": "MIC", "setting": "Staph. aureus L165; L165, 24 h, Staph. aureus L165 (10^6 cfu/ml)", "value": 0.25, "unit": "µg/mL"},
      {"measurement": "MIC", "setting": "Staph. aureus L165; Staph. aureus L165, 24 h, about 10^4-10^5 cfu/ml", "value": 0.13, "unit": "µg/mL"},
      {"measurement": "MIC", "setting": "Strep. pyogenes L49 C203", "value": 0.5, "unit": "µg/mL"},
      {"measurement": "MIC", "setting": "[7]", "value": 1, "unit": "µg/mL"},
      {"measurement": "MIC", "setting": "[8]", "value": 0.13, "unit": "µg/mL"},
      {"measurement": "MIC", "setting": "[9]", "value": 1, "unit": "µg/mL"},
      {"measurement": "MIC", "setting": "[10]", "value": 32, "unit": "µg/mL"},
      {"measurement": "MIC", "setting": "[11]", "value": 0.5, "unit": "µg/mL"},
      {"measurement": "MIC", "setting": "[12]", "value": 0.25, "unit": "µg/mL"}
    ]}
  ]
}
